EP1743636A1, “Combination of a substituted pyrazoline compound and a drug used in food-related disorders” (LABORATORIOS DEL DR. ESTEVE, S.A., priority 2005, dated 2007)
Like-named read-outs stand apart in the source and are kept apart here.

Columns and labels:
[1] = target: T1, transfected human CB1 receptors (Homo sapiens, UniProt P21554); experiment: In-vitro determination of affinity to CB1 receptor (radioligand [3H]-CP55940); type: binding; conditions: for inhibition at 1 µM: read-out: CB1-Receptor % Inhibition 10^-6 M
T1 construct: purchased Receptor Biology, Inc
T1 sequence (P21554 whole entry): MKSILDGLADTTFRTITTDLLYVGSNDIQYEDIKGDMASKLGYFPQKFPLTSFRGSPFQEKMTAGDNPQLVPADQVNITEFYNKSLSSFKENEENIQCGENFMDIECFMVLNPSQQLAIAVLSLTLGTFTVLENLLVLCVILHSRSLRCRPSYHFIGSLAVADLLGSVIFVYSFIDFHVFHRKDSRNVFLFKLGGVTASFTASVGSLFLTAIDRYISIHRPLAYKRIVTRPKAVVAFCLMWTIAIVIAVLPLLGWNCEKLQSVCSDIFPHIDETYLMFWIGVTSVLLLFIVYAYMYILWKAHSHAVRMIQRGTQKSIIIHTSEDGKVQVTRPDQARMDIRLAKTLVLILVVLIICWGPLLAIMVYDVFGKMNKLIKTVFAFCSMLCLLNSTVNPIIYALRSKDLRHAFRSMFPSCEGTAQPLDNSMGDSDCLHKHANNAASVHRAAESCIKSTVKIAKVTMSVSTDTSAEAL
Description: (§1) The in-vitro determination of the affinity of the substituted pyrazoline compounds to CB1/CB2-Rezeptors is carried out as described in the publication of Ruth A. Ross, Heather C. Brockie et al., "Agonist-inverse agonist characterization at CB1 and CB2 cannabinoid receptors of L-759633, L759656 and AM630", British Journal of Pharmacology, 126, 665-672, (1999), whereby the transfected human CB1 and CB2 receptors of Receptor Biology, Inc. are used. The radioligand used for both receptors is [^3H]-CP55940. The respective parts of the description is hereby incorporated by reference and forms part of the present disclosure. The affinity of the inventive substituted pyrazoline compounds to CB1/CB2 receptors was determined as described above.

Male NMRI mice [2] = experiment: Mouse tetrad model: catalepsy; type: in vivo; conditions: for Antagonistic Effect C: Catalepsy: 5 mg/kg i.v. prior to Win 55212-2 in a dose of 1,25mg/kg i.v.; for Agonistic effect C: Catalepsy: 5 mg/kg i.v., measured 20 minutes after injection
Source text: (§2) Substances with affinity for cannabinoid receptors are known to produce a wide range of pharmacological effects. It is also known that intravenous administration of a substance with affinity for cannabinoid receptors in mice produces analgesia , hypothermia, sedation and catalepsy. Individually, none of these effects can be considered as proof that a tested substance has affinity for cannabinoid-receptors, since all of these effects are common for various classes of centrally active agents. However, substances, which show all of these effects, i.e. substances that are active in this so-called tetrad model are considered to have affinity for the cannabinoid receptors. It has further been shown that cannabinoid receptor antagonists are higly effective in blocking the effects of a cannabinoid agonist in the mouse tetrad model.
(§3) The tetrad model is described, for example, in the publication of A. C. Howlett et al, International Union of Pharmacology XXVII. Classification of Cannabinoid Receptors, Pharmacol Rev 54, 161-202, 2002 and David R. Compton et al., "In-vivo Characterization of a Specific Cannabinoid Receptor Antagonist (SR141716A) :Inhibition of Tetrahydrocannbinol- induced Responses and Apparent Agonist Activity", J. Pharmacol. Exp. Ther. 277 , 2, 586-594, 1996. The corresponding parts of the description are hereby incorporated by reference. […]
(§4) Before testing in the behavioral procedures given below, mice are acclimatized to the experimental setting. Pre-Treatment control values are determined for analgesia hot plate latency (in seconds), rectal temperature, sedation and catalepsy.
(§5) In order to determine the agonistic activty of the substance to be tested, the mice are injected intravenously with the substance to be tested or the vehicle alone. 15 minutes after injection, latency in hot plate analgesia is measured. Rectal temperature, sedation and catalepsy are measured 20 minutes after injection.
(§6) In order to determine the antagonistic activity the identical procedure is used as for the determination of the agonistic effects, but with the difference that the substance to be evaluated for its antagonistic activity is injectected 5 minutes before the intravenous injection of 1.25 mg/kg Win-55,212 a known cannabinoid-receptor agonist.
Catalepsy is determined according to the method described in Alpermann H. G. et al. "Pharmacological effets of Hoe 249: A new potential antidepressant", Drugs Dev. […]
The cataleptic effect of the substance to be tested is evaluated according to the duration of catalepsy, whereby the animals are placed head downwards with their kinlegs upon the top of the wooden block. […]
The percentage of catalepsy is determined according ot the following formula: %Catalepsy = arithmetic mean/6 × 100 [formula] […]

[3] = target: T2, transfected human CB2 receptors (Homo sapiens, UniProt P34972); experiment: In-vitro determination of affinity to CB2 receptor (radioligand [3H]-CP55940); type: binding; conditions: for Ki: radioligand [3H]-CP55940; for inhibition at 1 µM: read-out: CB2-Receptor % Inhibition 10^-6 M
T2 construct: purchased Receptor Biology, Inc
T2 sequence (P34972 whole entry): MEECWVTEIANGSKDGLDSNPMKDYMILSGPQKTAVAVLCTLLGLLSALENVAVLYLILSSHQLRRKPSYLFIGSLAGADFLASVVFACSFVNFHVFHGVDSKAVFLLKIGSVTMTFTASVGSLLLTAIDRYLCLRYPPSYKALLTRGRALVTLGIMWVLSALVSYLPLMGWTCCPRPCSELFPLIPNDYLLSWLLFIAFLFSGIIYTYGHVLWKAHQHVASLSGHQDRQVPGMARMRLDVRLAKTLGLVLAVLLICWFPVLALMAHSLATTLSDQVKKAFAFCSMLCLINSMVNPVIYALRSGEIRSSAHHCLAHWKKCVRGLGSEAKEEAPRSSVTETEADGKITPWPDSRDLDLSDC
Description: as §1

Male NMRI mice [4] = experiment: Mouse tetrad model: sedation and ataxia; type: in vivo; conditions: for Antagonistic Effect D: Sedation: 5 mg/kg i.v. prior to Win 55212-2 in a dose of 1,25mg/kg i.v.; for Agonistic effect D: Sedation: 5 mg/kg i.v., measured 20 minutes after injection
Source text: as §2
The tetrad model is described, for example, in the publication of A. C. Howlett et al, International Union of Pharmacology XXVII. Classification of Cannabinoid Receptors, Pharmacol Rev 54, 161-202, 2002 and David R. Compton et al., "In-vivo Characterization of a Specific Cannabinoid Receptor Antagonist (SR141716A) :Inhibition of Tetrahydrocannbinol- induced Responses and Apparent Agonist Activity", J. Pharmacol. Exp. Ther. 277 , 2, 586-594, 1996. The corresponding parts of the description are hereby incorporated by reference.
Male NMRI mice with a weight of 20-30 g (Harlan, Barcelona, Spain) are used in all of the following experiments.
as §4, §5, §6
Sedation and ataxia is determined according to the method described in Desmet L. K. C. et al. "Anticonvulsive properties of Cinarizine and Flunarizine in Rats and Mice", Arzneim. -Forsch. (Frug Res) 25, 9, 1975. […]
The percentage of sedation is determined according to the formula: %of sedation = arithmetic mean/3 × 100 [formula]
(§7) The determinination of cannabinoid activity in-vivo was determined as described above. […]

Male NMRI mice [5] = experiment: Mouse tetrad model: hypothermia; type: in vivo; conditions: for Antagonistic Effect B: Hypothermia: 5 mg/kg i.v. prior to Win 55212-2 in a dose of 1,25mg/kg i.v.; for Agonistic effect B: Hypothermia: 5 mg/kg i.v., measured 20 minutes after injection
Source text: as §2, §3, §4, §5, §6
Hypothermia is determined according to the method described in David R. Compton et al. "In-vivo Characterization of a Specific Cannabinoid Receptor Antagonist (SR141716A) Inhibition of Tetrahydrocannbinol- induced Responses and Apparent Agonist Activity", J. Pharmacol Exp Ther. 277 , 2, 586-594, 1996. […]
The base-line rectal temperatures are determined with a thermometer (Yello Springs Instruments Co., Panlabs) and a thermistor probe inserted to 25mm before the administration of the substance to be tested. […]

Male NMRI mice [6] = experiment: Mouse tetrad model: hot plate analgesia; type: in vivo; conditions: for Antagonistic Effect A: Hot-Plate test: 5 mg/kg i.v. prior to Win 55212-2 in a dose of 1,25mg/kg i.v.; for Agonistic effect A: Hot-Plate test: 5 mg/kg i.v., measured 15 minutes after injection
Source text: as §2, §3, §4, §5, §6
The hot plate analgesia is determined according to the method described in Woolfe D. et al. "The evaluation of analgesic action of pethidine hydrochloride (Demerol)", J. Pharmacol. Exp. Ther. 80, 300-307,1944. […]
The mice are placed on a hot plate (Harvard Analgesimeter) at 55 ± 0.5 °C until they show a painful sensation by licking their paws or jumping and the time for these sensations to occur is recorded. This reading is considered the basal value (B). […]
as §7

| Structure (SMILES) | Ki [1] | inhibition at 1 µM [1] | Antagonistic Effect C: Catalepsy (Male NMRI mice [2]) | Agonistic effect C: Catalepsy (Male NMRI mice [2]) | Ki [3] | inhibition at 1 µM [3] | Antagonistic Effect D: Sedation (Male NMRI mice [4]) | Agonistic effect D: Sedation (Male NMRI mice [4]) | Antagonistic Effect B: Hypothermia (Male NMRI mice [5]) | Agonistic effect B: Hypothermia (Male NMRI mice [5]) | Antagonistic Effect A: Hot-Plate test (Male NMRI mice [6]) | Agonistic effect A: Hot-Plate test (Male NMRI mice [6]) | Ki ([1]; radioligand [3H]-CP55940, read-out: CB1-Receptor Ki) |
| --- | --- | --- | --- | --- | --- | --- | --- | --- | --- | --- | --- | --- | --- |
| O=C(NN1CCCCC1)C1=NN(c2ccc(Cl)cc2Cl)C(c2ccc(Cl)cc2)C1 (stereo not drawn) [Example 1, N-piperidinyl-5-(4-chlorophenyl)-1-(2,4-dichlorophenyl)-4,5-dihydro-1H-pyrazole-3-carboxamide] | < 25 nM | 93% | 100 | 0 | > 1000 nM | 33% | 100 | 0 | 100 | 0 | 74 | 0 | – |
| O=C(C1=NN(c2ccc(Cl)cc2Cl)C(c2ccc(Cl)cc2)C1)N1CCCCC1 (stereo not drawn) [Example 5, [5-(4-Chloro-phenyl)-1-(2,4-dichloro-phenyl)-4,5-dihydro-1H-pyrazol-3-yl]-piperidin-1-yl-methanone] | – | 79% | 20 | 0 | ~1000 nM | 54% | 20 | 0 | 40 | 50 | 50 | 0 | 111 nM |
